{"source": "PubChem BioAssay AID2060487", "about": "(Molecular Pharmacology Branch, DTP, NCI, 2025);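 further: spheroids exposed to the agents for 7 days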;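 on viability, T/C: 100% = DMSO vehicle control viability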", "system": "997537-175-T-J1-PDC complex spheroid viability", "test": "Anticancer human tumor 997537-175-T-J1-PDC patient-derived colon adenocarcinoma cell line growth inhibition [GQUAD]", "conditions": "for IC50: curve of first compound; for viability, T/C: stronger effect = lower value", "summary_of_the_method": "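Multi-cell-type spheroids of tumor cells with HUVEC and mesenchymal stem cells, treated with drug combinations. Concentrations descend in half-log steps from near clinical Cmax, or from 10 microM where Cmax is unknown; viability read-out.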"}
{"smiles": "Cn1ncnc1[C@H]1c2n[nH]c(=O)c3cc(F)cc(c23)N[C@@H]1c1ccc(F)cc1", "note": "+ Cc1cnc(CNC(=O)c2c(=O)c3ccc(N4CCCN(C)CC4)nc3n3c2sc2ccccc23)cn1", "values": [{"measurement": "IC50", "setting": "second compound 0.0316 µM", "result": "> 316", "unit": "nM"}, {"measurement": "IC50", "setting": "second compound 0.1 µM", "result": "> 316", "unit": "nM"}, {"measurement": "IC50", "setting": "second compound 0.316 µM", "result": "> 316", "unit": "nM"}, {"measurement": "IC50", "setting": "second compound 1 µM", "result": "> 316", "unit": "nM"}, {"measurement": "IC50", "setting": "second compound 3.16 µM", "result": "> 316", "unit": "nM"}, {"measurement": "IC50", "setting": "second compound 10 µM", "result": "> 316", "unit": "nM"}, {"measurement": "viability, T/C", "setting": "second compound 0.0316 µM, first compound 0.000999 µM", "result": 96.5, "unit": "%"}, {"measurement": "viability, T/C", "setting": "second compound 0.0316 µM, first compound 0.00316 µM", "result": 90.8, "unit": "%"}, {"measurement": "viability, T/C", "setting": "second compound 0.0316 µM, first compound 0.00999 µM", "result": 90.8, "unit": "%"}, {"measurement": "viability, T/C", "setting": "second compound 0.0316 µM, first compound 0.0316 µM", "result": 86.6, "unit": "%"}, {"measurement": "viability, T/C", "setting": "second compound 0.0316 µM, first compound 0.0999 µM", "result": 76.9, "unit": "%"}, {"measurement": "viability, T/C", "setting": "second compound 0.0316 µM, first compound 0.316 µM", "result": 87.4, "unit": "%"}, {"measurement": "viability, T/C", "setting": "second compound 0.1 µM, first compound 0.000999 µM", "result": 106, "unit": "%"}, {"measurement": "viability, T/C", "setting": "second compound 0.1 µM, first compound 0.00316 µM", "result": 79.2, "unit": "%"}, {"measurement": "viability, T/C", "setting": "second compound 0.1 µM, first compound 0.00999 µM", "result": 106, "unit": "%"}, {"measurement": "viability, T/C", "setting": "second compound 0.1 µM, first compound 0.0316 µM", "result": 52.1, "unit": "%"}, {"measurement": "viability, T/C", "setting": "second compound 0.1 µM, first compound 0.0999 µM", "result": 89.6, "unit": "%"}, {"measurement": "viability, T/C", "setting": "second compound 0.1 µM, first compound 0.316 µM", "result": 85, "unit": "%"}, {"measurement": "viability, T/C", "setting": "second compound 0.316 µM, first compound 0.000999 µM", "result": 107, "unit": "%"}, {"measurement": "viability, T/C", "setting": "second compound 0.316 µM, first compound 0.00316 µM", "result": 93.8, "unit": "%"}, {"measurement": "viability, T/C", "setting": "second compound 0.316 µM, first compound 0.00999 µM", "result": 86.4, "unit": "%"}, {"measurement": "viability, T/C", "setting": "second compound 0.316 µM, first compound 0.0316 µM", "result": 80.8, "unit": "%"}, {"measurement": "viability, T/C", "setting": "second compound 0.316 µM, first compound 0.0999 µM", "result": 98.7, "unit": "%"}, {"measurement": "viability, T/C", "setting": "second compound 0.316 µM, first compound 0.316 µM", "result": 85.5, "unit": "%"}, {"measurement": "viability, T/C", "setting": "second compound 1 µM, first compound 0.000999 µM", "result": 89.4, "unit": "%"}, {"measurement": "viability, T/C", "setting": "second compound 1 µM, first compound 0.00316 µM", "result": 89.9, "unit": "%"}, {"measurement": "viability, T/C", "setting": "second compound 1 µM, first compound 0.00999 µM", "result": 94.4, "unit": "%"}, {"measurement": "viability, T/C", "setting": "second compound 1 µM, first compound 0.0316 µM", "result": 116, "unit": "%"}, {"measurement": "viability, T/C", "setting": "second compound 1 µM, first compound 0.0999 µM", "result": 95, "unit": "%"}, {"measurement": "viability, T/C", "setting": "second compound 1 µM, first compound 0.316 µM", "result": 108, "unit": "%"}, {"measurement": "viability, T/C", "setting": "second compound 3.16 µM, first compound 0.000999 µM", "result": 104, "unit": "%"}, {"measurement": "viability, T/C", "setting": "second compound 3.16 µM, first compound 0.00316 µM", "result": 86.9, "unit": "%"}, {"measurement": "viability, T/C", "setting": "second compound 3.16 µM, first compound 0.00999 µM", "result": 96.2, "unit": "%"}, {"measurement": "viability, T/C", "setting": "second compound 3.16 µM, first compound 0.0316 µM", "result": 100, "unit": "%"}, {"measurement": "viability, T/C", "setting": "second compound 3.16 µM, first compound 0.0999 µM", "result": 94.4, "unit": "%"}, {"measurement": "viability, T/C", "setting": "second compound 3.16 µM, first compound 0.316 µM", "result": 106, "unit": "%"}, {"measurement": "viability, T/C", "setting": "second compound 10 µM, first compound 0.000999 µM", "result": 87.2, "unit": "%"}, {"measurement": "viability, T/C", "setting": "second compound 10 µM, first compound 0.00316 µM", "result": 98.9, "unit": "%"}, {"measurement": "viability, T/C", "setting": "second compound 10 µM, first compound 0.00999 µM", "result": 97.7, "unit": "%"}, {"measurement": "viability, T/C", "setting": "second compound 10 µM, first compound 0.0316 µM", "result": 103, "unit": "%"}, {"measurement": "viability, T/C", "setting": "second compound 10 µM, first compound 0.0999 µM", "result": 96.4, "unit": "%"}, {"measurement": "viability, T/C", "setting": "second compound 10 µM, first compound 0.316 µM", "result": 98.3, "unit": "%"}]}
